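A five-concentration, 48-hour dose response in 96-well plates underlies each endpoint, interpolated linearly between surrounding concentrations. GI50 is the concentration that inhibits growth by half.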 Active and inactive are the calls of the source. Cut-off read from the data, not from the text of the source: active = GI50 up to about 1.1 µM and inactive = higher.
Columns and labels:
Assay in all cases: growth of human tumour cells (NCI), 48 h
UACC-257 = system: UACC-257
SK-MEL-28 = system: SK-MEL-28
M14 = system: M14
ACHN = system: ACHN
CAKI-1 = system: CAKI-1
786-0 = system: 786-0
NCI-H23 = system: NCI-H23
HOP-62 = system: HOP-62
NCI-H226 = system: NCI-H226
DU-145 = system: DU-145
IGROV-1 = system: IGROV-1
A498 = system: A498
A549 = system: A549
UACC-62 = system: UACC-62
RPMI-8226 = system: RPMI-8226
TK-10 = system: TK-10
HCT-116 = system: HCT-116
SK-OV-3 = system: SK-OV-3
OVCAR-3 = system: OVCAR-3
OVCAR-4 = system: OVCAR-4

Measured: GI50

O=[N+]([O-])C(=C1NCCN1)C(Cl)=C(Cl)Cl
inactive: UACC-257 > 100 µM | SK-MEL-28 > 100 µM | M14 > 100 µM | ACHN > 100 µM | CAKI-1 > 100 µM | 786-0 > 100 µM | NCI-H23 > 100 µM | HOP-62 > 100 µM | NCI-H226 > 100 µM | DU-145 > 100 µM | IGROV-1 > 100 µM | A498 > 100 µM | A549 > 100 µM | UACC-62 > 100 µM | RPMI-8226 > 100 µM | TK-10 > 100 µM | HCT-116 > 100 µM | SK-OV-3 > 100 µM | OVCAR-3 > 100 µM | OVCAR-4 > 100 µM

CC(C)c1cc2c(cc1S(=O)(=O)O)[C@@]1(C)CCC[C@@](C)(C(=O)O)C1CC2 (stereo not given in full)
inactive: UACC-257 > 100 µM | SK-MEL-28 > 100 µM | M14 > 100 µM | ACHN > 100 µM | CAKI-1 > 100 µM | 786-0 > 100 µM | NCI-H23 > 100 µM | HOP-62 > 100 µM | NCI-H226 > 100 µM | DU-145 > 100 µM | IGROV-1 > 100 µM | A498 > 100 µM | A549 > 100 µM | UACC-62 > 100 µM | RPMI-8226 > 100 µM | TK-10 > 100 µM | HCT-116 > 100 µM | SK-OV-3 > 100 µM | OVCAR-3 > 100 µM | OVCAR-4 > 100 µM

COc1ccc2c(C)cc(N/N=C/c3ccc(C)s3)nc2c1
inactive: UACC-257 11 µM | SK-MEL-28 24.7 µM | M14 6.55 µM | ACHN 18 µM | CAKI-1 13.5 µM | 786-0 5.89 µM | NCI-H23 12.3 µM | HOP-62 18.7 µM | NCI-H226 13 µM | DU-145 6.49 µM | IGROV-1 7.82 µM | A498 19.4 µM | A549 7.91 µM | UACC-62 20.1 µM | RPMI-8226 3.55 µM | TK-10 19 µM | HCT-116 5.92 µM | SK-OV-3 17 µM | OVCAR-3 2.94 µM | OVCAR-4 11.1 µM

CC(N)/C(N)=N/O (stereo not given)
inactive: UACC-257 > 100 µM | SK-MEL-28 > 100 µM | M14 > 100 µM | ACHN > 100 µM | CAKI-1 > 100 µM | 786-0 > 100 µM | NCI-H23 > 100 µM | HOP-62 > 100 µM | NCI-H226 > 100 µM | DU-145 > 100 µM | IGROV-1 > 100 µM | A498 > 100 µM | A549 > 100 µM | UACC-62 > 100 µM | RPMI-8226 > 100 µM | TK-10 > 100 µM | HCT-116 > 100 µM | SK-OV-3 > 100 µM | OVCAR-3 > 100 µM | OVCAR-4 > 100 µM

CC1(C)OC(=O)C(C)(C)OC1=O
inactive: UACC-257 > 100 µM | SK-MEL-28 > 100 µM | M14 > 100 µM | ACHN > 100 µM | CAKI-1 > 100 µM | 786-0 > 100 µM | NCI-H23 > 100 µM | HOP-62 > 100 µM | NCI-H226 > 100 µM | DU-145 > 100 µM | IGROV-1 > 100 µM | A498 > 100 µM | A549 > 100 µM | UACC-62 > 100 µM | RPMI-8226 > 100 µM | TK-10 > 100 µM | HCT-116 > 100 µM | SK-OV-3 > 100 µM | OVCAR-3 > 100 µM | OVCAR-4 > 100 µM

From ChEMBL document CHEMBL1201862, “PubChem BioAssay data set” (2004)
